*1 amine or outer side, *2 acyl side, *3 side chain or, on linkers, in order; H or OH if unused. Where a SMILES comes first, the peptide text is derived from it. Bridges are numbered along the chain shown (N, C = ends). [ ]: non-standard residue; d: D form. X1 = O=C(O)CCCCCCCCCCCCCCCCCCC(=O)N[C@@H](CCCCNC(=O)COCCOCCNC(=O)COCCOCCNC(=O)CCC(=O)N(CCNC(=O)C[*:1])CCNC(=O)C[*:2])C(=O)O; αMeL = CC(C)C[C@](C)(N)C(=O)O; Aib = CC(C)(N)C(=O)O

Common to all, as to type: cell-based
For assay [1], the target named is T1, GCGR (Homo sapiens, UniProt P47871).
T1 construct: expressed in transfected cells
T1 sequence (P47871 26-477, species assumed): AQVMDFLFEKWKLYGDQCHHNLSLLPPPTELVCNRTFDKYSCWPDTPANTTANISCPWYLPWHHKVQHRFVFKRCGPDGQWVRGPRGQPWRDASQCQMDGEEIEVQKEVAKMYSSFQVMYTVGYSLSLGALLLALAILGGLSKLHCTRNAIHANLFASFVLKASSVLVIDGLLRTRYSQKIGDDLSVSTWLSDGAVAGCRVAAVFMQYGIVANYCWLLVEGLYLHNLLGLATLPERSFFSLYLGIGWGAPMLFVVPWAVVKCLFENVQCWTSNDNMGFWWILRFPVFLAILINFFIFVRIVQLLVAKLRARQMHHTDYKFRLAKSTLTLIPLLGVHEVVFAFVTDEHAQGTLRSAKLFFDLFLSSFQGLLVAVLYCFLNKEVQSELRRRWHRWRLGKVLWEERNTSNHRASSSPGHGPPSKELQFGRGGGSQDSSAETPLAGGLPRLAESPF
Put plainly: CreLuc method (CRE-luciferase reporter), 293HEK/pGM-CREB-L-Luc/GCGR pool. The following applies: 6 h incubation, read-out: EC50 (pM) for each receptor GCGR. Summed up: (§1)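 Stable HEK293 pools co-expressing each receptor with a CRE-luciferase reporter were plated at 20,000 cells/well in freestyle medium and treated with compound dilution series for 6 h at 37 °C. Luminescence was read with ONE-GLO to derive EC50.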

The target in assay [2] is T2, GLP-1R (Homo sapiens, UniProt P43220).
T2 construct: expressed in transfected cells
T2 sequence (P43220 24-463, species assumed): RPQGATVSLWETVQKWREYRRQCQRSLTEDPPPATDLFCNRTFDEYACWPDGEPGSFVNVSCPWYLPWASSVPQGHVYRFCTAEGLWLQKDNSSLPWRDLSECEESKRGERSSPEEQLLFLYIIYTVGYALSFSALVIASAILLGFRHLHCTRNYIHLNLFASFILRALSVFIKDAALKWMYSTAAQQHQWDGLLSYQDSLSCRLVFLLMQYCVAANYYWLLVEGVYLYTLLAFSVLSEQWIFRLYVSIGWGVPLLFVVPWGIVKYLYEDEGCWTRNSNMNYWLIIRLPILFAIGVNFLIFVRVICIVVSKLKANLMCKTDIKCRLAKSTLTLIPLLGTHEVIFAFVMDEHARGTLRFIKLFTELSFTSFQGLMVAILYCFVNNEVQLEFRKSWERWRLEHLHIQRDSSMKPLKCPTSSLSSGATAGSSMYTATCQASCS
As to the kind of experiment: CreLuc method (CRE-luciferase reporter), HEK293/pGM-CREB-L-Luc/GLP-1R pool. The following applies: 6 h incubation, read-out: EC50 (pM) for each receptor GLP-1R. Summed up:
as §1
A general note: Reporter assays use an easily measured gene product as a stand-in for the process of interest.

The target in assay [3] is T1, GCGR. As to the kind of experiment: cAMP method (HTRF cAMP detection kit), HEK293/pGM-CREB-L-Luc/GCG pool. The following applies: read-out: EC50 (pM) for each receptor GCGR. Here is the method: (§2) 2. Insulinotropic analogues can bind to target receptors on the cell membrane, activate the receptors, and induce release. The activity of the test substance can be determined using the HTRF method with a cAMP detection kit. Therefore, the cAMP method can be used to detect the target peptide derivatives (or polypeptide derivatives, i.e., TG1-TG86) prepared in Example 1 and Example 2. […] The test cell line was selected, treated with cAMP-specific trypsin for digestion. 3 mL of serum-free DMEM culture medium was added, and the cells were pipetted, resuspended, and counted. 5 µL of IBMX (prepared with serum-free DMEM medium, 0.5 mM) and test cells (5 µL/7500 cells/well) were added in a 384-well plate sequentially. The plate was incubated at 37°C under 5% CO2 for 30 min, followed by the addition of cAMP-d2 (5 µL, 1x) and Anti-cAMP-Cryptate (5 µL, 1x). The mixture was kept at room temperature for 1 h, after which the HTRF value was measured using a chemiluminescent microplate reader, and the determination result was recorded. […] Table 4: EC50 values for target peptide derivatives
(In general: TR-FRET usually uses a lanthanide donor and a delayed reading to cut background.)

In assay [4] the target is T3, GIPR (Homo sapiens, UniProt P48546).
T3 construct: expressed in transfected cells
T3 sequence (P48546 22-466): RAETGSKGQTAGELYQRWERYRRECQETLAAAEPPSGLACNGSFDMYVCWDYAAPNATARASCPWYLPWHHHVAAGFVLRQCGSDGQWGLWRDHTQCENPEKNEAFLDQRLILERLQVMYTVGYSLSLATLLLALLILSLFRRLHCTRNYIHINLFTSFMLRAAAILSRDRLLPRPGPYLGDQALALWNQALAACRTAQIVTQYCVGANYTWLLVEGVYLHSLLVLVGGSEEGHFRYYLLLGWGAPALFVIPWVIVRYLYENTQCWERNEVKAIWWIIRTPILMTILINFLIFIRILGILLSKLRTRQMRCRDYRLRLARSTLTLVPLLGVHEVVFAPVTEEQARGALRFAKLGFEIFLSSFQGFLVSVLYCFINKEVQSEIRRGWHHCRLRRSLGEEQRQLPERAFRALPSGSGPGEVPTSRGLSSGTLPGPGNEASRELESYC
As to the kind of experiment: cAMP method (HTRF cAMP detection kit), HEK293/pGM-CREB-L-Luc/GIP pool. The following applies: read-out: EC50 (pM) for each receptor GIPR. Here is the method: as §2

Assay [5] deals with T3, GIPR. As to the kind of experiment: CreLuc method (CRE-luciferase reporter), HEK293/pGM-CREB-L-Luc/GIPR pool. The following applies: 6 h incubation, read-out: EC50 (pM) for each receptor GIPR. The gist of the method: as §1

One may read the EC50 as the concentration giving half of the maximal effect. For `CC[C@H](C)[C@@H]1NC(=O)[C@H](Cc2ccccc2)NC(=O)[C@@H](NC(=O)C(C)(C)NC(=O)[C@H](CCC(N)=O)NC(=O)[C@H](C)NC(=O)[C@H](CCCCNC(C)=O)NC(=O)[C@](C)(CCCCN)NC(=O)[C@H](CC(=O)O)NC(=O)[C@H](CC(C)C)NC(=O)[C@](C)(CC(C)C)NC(=O)[C@@H](NC(=O)[C@](C)(CO)NC(=O)[C@H](Cc2ccc(O)cc2)NC(=O)[C@H](CC(=O)O)NC(=O)[C@H](CO)NC(=O)[C@@H](NC(=O)[C@H](Cc2ccccc2F)NC(=O)[C@@H](NC(=O)CNC(=O)[C@H](CCC(N)=O)NC(=O)C(C)(C)NC(=O)[C@@H](N)Cc2ccc(O)cc2)[C@@H](C)O)[C@@H](C)O)[C@@H](C)CC)CSCC(=O)NCCN(C(=O)CCC(=O)NCCOCCOCC(=O)NCCOCCOCC(=O)NCCCC[C@H](NC(=O)CCCCCCCCCCCCCCCCCCC(=O)O)C(=O)O)CCNC(=O)CSC[C@@H](C(=O)NCC(=O)NCC(=O)N2CCC[C@H]2C(=O)N[C@@H](CO)C(=O)N[C@@H](CO)C(=O)NCC(=O)N[C@@H](C)C(=O)N2CCC[C@H]2C(=O)N2CCC[C@H]2C(=O)N2CCC[C@H]2C(=O)N[C@@H](CO)C(N)=O)NC(=O)[C@H](CC(C)C)NC(=O)[C@H](CC(C)C)NC(=O)[C@H](Cc2ccc(O)cc2)NC(=O)[C@H](CCC(=O)O)NC1=O` [TG61], the EC50 in assay [1] was determined as 268 pM; in assay [2] it was 264 pM; in assay [3] it was 12.4 pM; in assay [4], 5.9 pM; in assay [5], 12.6 pM.

As for `CC[C@H](C)[C@@H]1NC(=O)[C@H](Cc2ccccc2)NC(=O)[C@@H](NC(=O)[C@H](Cc2c[nH]cn2)NC(=O)[C@H](CCC(N)=O)NC(=O)[C@H](C)NC(=O)[C@H](CCCCNC(C)=O)NC(=O)[C@H](CCCCN)NC(=O)[C@H](CC(=O)O)NC(=O)[C@H](CC(C)C)NC(=O)[C@](C)(CC(C)C)NC(=O)[C@@H](NC(=O)[C@H](CO)NC(=O)[C@H](Cc2ccc(O)cc2)NC(=O)[C@H](CC(=O)O)NC(=O)[C@H](CO)NC(=O)[C@@H](NC(=O)[C@H](Cc2ccccc2)NC(=O)[C@@H](NC(=O)CNC(=O)[C@H](CCC(N)=O)NC(=O)C(C)(C)NC(=O)[C@@H](N)Cc2ccc(O)cc2)[C@@H](C)O)[C@@H](C)O)[C@@H](C)CC)CSCC(=O)NCCN(C(=O)CCC(=O)NCCOCCOCC(=O)NCCOCCOCC(=O)NCCCC[C@H](NC(=O)CCCCCCCCCCCCCCCCCCC(=O)O)C(=O)O)CCNC(=O)CSC[C@@H](C(=O)NCC(=O)NCC(=O)N2CCC[C@H]2C(=O)N[C@@H](CO)C(=O)N[C@@H](CO)C(=O)NCC(=O)N[C@@H](C)C(=O)N2CCC[C@H]2C(=O)N2CCC[C@H]2C(=O)N2CCC[C@H]2C(=O)N[C@@H](CO)C(N)=O)NC(=O)[C@H](CC(C)C)NC(=O)[C@H](CC(C)C)NC(=O)[C@H](Cc2ccc(O)cc2)NC(=O)[C@H](CCC(=O)O)NC1=O` [TG32] (H-Y[Aib]QGTFTSDYSI[αMeL]LDKK(Ac)AQHCFIEYLLCGGPSSGAPPPS-NH2; linker 21-28 via X1), the values for the 50% effective concentration (EC50) in assay [1], in assay [2] and in assay [5] were 197 pM, 34 pM and 11.7 pM, respectively.

The values are drawn from EP4790066A1, “GLP-1R/GIPR/GCGR TRIPLE AGONIST ANALOGUE AND USE THEREOF” (Shenzhen Bay Laboratory, priority 2023, dated 2025).
